In patent publication EP4806898A1, “HETEROARYL DERIVATIVE COMPOUND AND USE THEREOF” (Voronoi Inc., priority 2023, dated 2025):

Legend:
recombinant USP1 protein = target: T1, recombinant USP1 protein (Homo sapiens, UniProt O94782, DEL125-138/DEL229-408/DEL608-737); experiment: Binding affinity to recombinant USP1 protein by differential scanning fluorimetry; conditions: compound 100 µM; 0.03 mg/mL USP1 (Δ1-66, Δ125-138, Δ229-408, Δ608-737); Tm with compound minus Tm with DMSO; read-out: ΔTm (°C)
T1 sequence (O94782 with tags, fused parts or gaps DEL125-138/DEL229-408/DEL608-737): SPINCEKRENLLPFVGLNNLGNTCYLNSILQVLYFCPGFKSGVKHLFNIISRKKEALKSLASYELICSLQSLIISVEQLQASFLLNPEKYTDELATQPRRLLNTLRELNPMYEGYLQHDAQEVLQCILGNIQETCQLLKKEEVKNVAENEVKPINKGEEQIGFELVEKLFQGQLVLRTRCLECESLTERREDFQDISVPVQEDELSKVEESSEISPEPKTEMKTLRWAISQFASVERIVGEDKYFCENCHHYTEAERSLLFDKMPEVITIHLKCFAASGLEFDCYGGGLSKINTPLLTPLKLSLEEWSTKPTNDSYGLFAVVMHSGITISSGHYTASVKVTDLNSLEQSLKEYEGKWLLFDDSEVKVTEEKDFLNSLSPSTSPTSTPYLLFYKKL
Procedure, shortened: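 USP1 (Δ1-66, Δ125-138, Δ229-408, Δ608-737) at 0.03 mg/mL with dye in 50 mM Tris-HCl pH 8.0, 150 mM NaCl, 2% glycerol, 1 mM DTT; compounds at 100 µM final. Tm read on real-time PCR instrument; ΔTm = Tm with compound minus Tm with DMSO.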

UWB1.289 cells = experiment: Cell proliferation inhibitory activity in BRCA1/2-mutant or HRD-positive cells (Cell Titer-Glo); type: cell-based; conditions: UWB1289; UWB1.289 cells, 144 hours after compound treatment, Cell Titer-Glo, 1.5 nM to 10 µM; read-out: GI50 UWB1.289 BRCA1 mut
Procedure, shortened: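 UWB1.289 cells (1,000/well) in 50% MEBM/50% RPMI1640 exposed to […], final 1.5 nM to 10 µM, for 144 h at 37 °C. Viable cells measured by CellTiter-Glo luminescence; GI50 calculated.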

Row | ΔTm at 100 µM (recombinant USP1 protein) [°C] | Compound | GI50 (UWB1.289 cells) [nM]
1 | > 5 | COc1ncnc(C2CC2)c1-c1ncc2cc(C(=O)NC3(C)CC(F)(F)C3)n(Cc3ccc(-c4nc(C(F)(F)F)cn4C(C)C)cc3)c2n1 [Example 116, 2-(4-cyclopropyl-6-methoxypyrimidin-5-yl)-N-(3,3-difluoro-1-methylcyclobutyl)-7-(4-(1-isopropyl-4-(trifluoromethyl)-1H-imidazol-2-yl)benzyl)-7H-pyrrolo[2,3-d]pyrimidine-6-carboxamide] | < 100
2 | > 5 | COc1ncnc(C2CC2)c1-c1ncc2cc(C(=O)N3CCC4(CC3)CNCCO4)n(Cc3ccc(-c4nc(C(F)(F)F)cn4C(C)C)cc3)c2n1 [Example 94, (2-(4-cyclopropyl-6-methoxypyrimid in-5-yl)-7-(4-(1-isopropyl-4-(trifluoromethyl)-1H-imidazol-2-yl)benzyl)-7H-pyrrolo[2,3-d]pyrimidin-6-yl)(1-oxa-4,9-diazaspiro[5.5]undecan-9-yl)methanone] | 100 to 500
3 | > 5 | CNC(=O)c1cc2cnc(-c3ccccc3C(C)C)nc2n1Cc1ccc(-c2nc(C(F)(F)F)cn2C(C)C)cc1 [Example 2, 7-(4-(1-isopropyl-4-(trifluoromethyl)-1H-imidazol-2-yl)benzyl)-2-(2-isopropylphenyl)-N-methyl-7H-pyrrolo[2,3-d]pyrimidine-6-carboxamide] | < 100
4 | > 5 | CNC(=O)c1cc2cnc(-c3c(OC)ncnc3C3CC3)nc2n1Cc1ccc(-n2nc(C(F)(F)F)cc2-c2ccco2)cc1 [Example 198, 2-(4-cyclopropyl-6-methoxypyrimidin-5-yl)-7-(4-(5-(furan-2-yl)-3-(trifluoromethyl)-1H-pyrazol-1-yl)benzyl)-N-methyl-7H-pyrrolo[2,3-d]pyrimidine-6-carboxamide] | 100 to 500
5 | > 5 | COc1ncnc(C2CC2)c1-c1ncc2cc(C(=O)NCCC(F)(F)F)n(Cc3ccc(-c4nc(C(F)(F)F)cn4C(C)C)cc3)c2n1 [Example 34, 2-(4-cyclopropyl-6-methoxypyrimidin-5-yl)-7-(4-(1-isopropyl-4-(trifluoromethyl)-1H-imidazol-2-yl)benzyl)-N-(3,3,3-trifluoropropyl)-7H-pyrrolo[2,3-d]pyrimidine-6-carboxamide] | 100 to 500
6 | > 5 | COc1ncnc(C2CC2)c1-c1ncc2cc(C(=O)N[C@@H]3CCN(C)C[C@@H]3F)n(Cc3ccc(-c4nc(C(F)(F)F)cn4C(C)C)cc3)c2n1 [Example 219, 2-(4-cyclopropyl-6-methoxypyrimidin-5-yl)-N-((3S,4R)-3-fluoro-1-methylpiperidin-4-yl)-7-(4-(1-isopropyl-4-(trifluoromethyl)-1H-imidazol-2-yl)benzyl)-7H-pyrrolo[2,3-d]pyrimidine-6-carboxamide] | < 100
7 | > 5 | COc1ncnc(C2CC2)c1-c1ncc2cc(C(=O)N3CCN(C)CC3)n(Cc3ccc(-c4nc(C(F)(F)F)cn4C(C)C)cc3)c2n1 [Example 24, (2-(4-cyclopropyl-6-methoxypyrimid in-5-yl)-7-(4-(1-isopropyl-4-(trifluoromethyl)-1H-imidazol-2-yl)benzyl)-7H-pyrrolo[2,3-d]pyrimidin-6-yl) (4-methylpiperazi n-1-yl)methanone] | < 100
8 | > 5 | COc1ncnc(C2CC2)c1-c1ncc2cc(C(=O)N(C)CSC)n(Cc3ccc(-c4nc(C(F)(F)F)cn4C)cc3)c2n1 [Example 210, 2-(4-cyclopropyl-6-methoxypyrimidin-5-yl)-N-methyl-7-(4-(1-methyl-4-(trifluoromethyl)-1H-imidazol-2-yl)benzyl)-N-((methylthio)methyl)-7H-pyrrolo[2,3-d]pyrimidine-6-carboxamide] | < 100
9 | > 5 | CNC(=O)c1cc2cnc(-c3c(Cl)cnn3C)nc2n1Cc1ccc(-c2nc(C(F)(F)F)cn2C)cc1 [Example 186, 2-(4-chloro-1-methyl-1H-pyrazol-5-yl)-N-methyl-7-(4-(1-methyl-4-(trifluoromethyl)-1H-imidazol-2-yl)benzyl)-7H-pyrrolo[2,3-d]pyrimidine-6-carboxamide] | < 100
